# Data as given in publication PMC9046208, “Foldamers reveal and validate therapeutic targets associated with toxic α-synuclein self-assembly” (Nature Communications, 2022).
# System: HEK cells expressing αS-A53T-YFP
# Experiment: Inclusion count by confocal imaging, HEK cells αS-A53T-YFP
# Type: cell-based
# Conditions: αS fibers 7 μM aggregated with equimolar SK-129, 24 h
# Description: The Lipofectamine solution (Lipofectamine+P3000 reagent, Thermo Fisher Scientific, Waltham, MA) was diluted to a ratio of 1:20 (v,v) in the OptiMEM (Fisher Scientific, Pittsburgh, PA) media. Simultaneously, the αS fiber solution (Stock solution conc. = 100 μM) was diluted in OptiMEM media to the desired conc. used for each assay. The αS fiber solution was sonicated for 10 min at r.t., followed by the addition of the Lipofectomine solution (in the OptiMEM media) at 1:1 ratio. Subsequently, this solution was incubated for another 10 min and then added to the HEK cells media with a dilution factor of 10 (10 μL of the combined αS fiber solution+Lipofectomine solution, in 90 μL HEK cells media). […]
# We used confocal microscopy imaging to manually count the endogenous inclusions (of αS-A53T-YFP and αS-YFP). […] The counting of inclusions was carried out for six different experiments and for each experiment, 100 cells were counted from at least four different locations from the eight-well plate. The cells were counted manually by counting the number of Hoechst 33342 dye-stained nuclei in the cells. Also, the inclusions in the cells were counted manually at different locations in the eight-well plate.
compound,measurement,value
COC(=O)c1cc(OCC(=O)O)c2cccc(NC(=O)c3cc(OC(C)C)c4cccc(NC(=O)c5cc(OCC(=O)O)c6cccc(NC(=O)c7cc(OC(C)C)c8cccc([N+](=O)[O-])c8n7)c6n5)c4n3)c2n1 [SK-129],inclusions (αS-A53T-YFP or αS-YFP),A very small number of inclusions
